Results from ChEMBL document CHEMBL5390256, “Sticklac-Derived Natural Compounds Inhibiting RNase H Activity of HIV-1 Reverse Transcriptase” (J Nat Prod, 2023).
The source made the active and inactive calls. The rule behind the calls is not given here.

Columns and labels:
[1] = biological target: T1, Human immunodeficiency virus type 1 reverse transcriptase (Human immunodeficiency virus 1, UniProt Q72547); test: Inhibition of HIV-1 RNase H activity
[2] = biological target: Human immunodeficiency virus type 1 reverse transcriptase (Human immunodeficiency virus 1) (UniProt Q72547); test: Inhibition of HIV-1 RNase H using 5'-GAUCUGAGCCUGGGAGCU-3'-FAM RNA/BHQ-5'-AGCTCCCAGGCTCAGATC-3' DNA as substrate at 50 uM measured after 60 mins by FRET analysis
[3] = biological target: T1, Human immunodeficiency virus type 1 reverse transcriptase; test: Inhibition of HIV-1 RNase H using 5'-GAUCUGAGCCUGGGAGCU-3'-FAM RNA/BHQ-5'-AGCTCCCAGGCTCAGATC-3' DNA as substrate measured after 60 mins by FRET analysis
[4] = Cytotoxicity activity against human R5-MaRBLE reporter cells assessed as effect on Renilla luciferase activity measured after 7 days by Dual-Glo luciferase reporter assay; type: toxicity, cell-based; conditions: time 7 day
[5] = biological target: DNA (cytosine-5)-methyltransferase 1 (Homo sapiens, UniProt P26358); test: Competitive inhibition of DNMT1 (unknown origin)
DNA (cytosine-5)-methyltransferase 1, sequence (P26358 whole entry): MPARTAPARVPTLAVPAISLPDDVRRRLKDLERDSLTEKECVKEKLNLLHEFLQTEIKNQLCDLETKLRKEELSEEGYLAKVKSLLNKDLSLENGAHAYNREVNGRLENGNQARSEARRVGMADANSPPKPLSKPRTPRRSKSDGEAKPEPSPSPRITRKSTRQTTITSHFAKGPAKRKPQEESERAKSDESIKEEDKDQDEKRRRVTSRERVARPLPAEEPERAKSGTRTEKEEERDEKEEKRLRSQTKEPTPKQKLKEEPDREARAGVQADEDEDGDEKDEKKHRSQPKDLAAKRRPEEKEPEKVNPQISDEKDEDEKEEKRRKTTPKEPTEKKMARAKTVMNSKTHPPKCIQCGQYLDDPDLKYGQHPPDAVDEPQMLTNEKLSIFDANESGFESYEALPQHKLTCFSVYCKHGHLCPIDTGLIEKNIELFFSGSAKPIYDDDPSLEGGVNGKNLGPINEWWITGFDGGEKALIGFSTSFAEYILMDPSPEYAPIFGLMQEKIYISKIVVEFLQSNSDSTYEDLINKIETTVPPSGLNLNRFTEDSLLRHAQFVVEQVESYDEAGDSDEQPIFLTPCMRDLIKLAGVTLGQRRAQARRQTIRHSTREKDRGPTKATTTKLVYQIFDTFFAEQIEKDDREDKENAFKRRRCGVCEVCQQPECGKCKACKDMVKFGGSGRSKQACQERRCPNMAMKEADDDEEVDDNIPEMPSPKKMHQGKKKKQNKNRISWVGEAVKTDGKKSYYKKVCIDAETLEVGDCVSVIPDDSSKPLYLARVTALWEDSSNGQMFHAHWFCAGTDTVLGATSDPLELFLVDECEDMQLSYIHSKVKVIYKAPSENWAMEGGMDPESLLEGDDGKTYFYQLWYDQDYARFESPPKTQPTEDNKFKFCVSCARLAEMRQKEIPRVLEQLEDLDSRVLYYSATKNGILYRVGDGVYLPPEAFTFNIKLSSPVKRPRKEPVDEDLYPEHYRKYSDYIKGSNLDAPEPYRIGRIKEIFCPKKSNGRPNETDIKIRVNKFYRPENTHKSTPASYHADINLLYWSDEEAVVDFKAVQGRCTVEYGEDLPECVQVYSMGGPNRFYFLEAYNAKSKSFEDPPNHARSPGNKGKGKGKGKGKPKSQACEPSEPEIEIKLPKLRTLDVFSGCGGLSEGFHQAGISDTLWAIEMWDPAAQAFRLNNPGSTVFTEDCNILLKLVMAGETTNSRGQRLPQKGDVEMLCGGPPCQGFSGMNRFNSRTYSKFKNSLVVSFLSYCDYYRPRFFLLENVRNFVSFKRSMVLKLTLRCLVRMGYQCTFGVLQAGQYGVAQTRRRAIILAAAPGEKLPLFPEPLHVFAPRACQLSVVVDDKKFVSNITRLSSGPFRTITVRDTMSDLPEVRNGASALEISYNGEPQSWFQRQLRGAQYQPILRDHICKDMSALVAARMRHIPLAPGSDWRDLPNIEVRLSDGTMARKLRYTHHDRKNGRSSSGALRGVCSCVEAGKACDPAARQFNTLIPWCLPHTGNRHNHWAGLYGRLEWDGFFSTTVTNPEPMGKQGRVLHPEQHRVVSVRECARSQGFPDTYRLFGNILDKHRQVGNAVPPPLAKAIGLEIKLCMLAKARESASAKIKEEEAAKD

[6] = tested on: Human immunodeficiency virus 1; test: Antiviral activity against HIV-1 NL4-3 infected in human R5-MaRBLE reporter cells assessed as inhibition of viral replication measured after 7 days by Dual-Glo luciferase reporter assay; type: functional, organism-based

Row | Structure (SMILES) | IC50 [1] [µM] | inhibition [2] | IC50 [3] [µM] | Ki [5] [µM] | EC50 ([6]; r5-marble) | EC50 ([6]; Human immunodeficiency virus 1, NL4-3, R5-MaRBLE, 168 h, read-out: EC50) [µM] | CC50 at 168 h [4] [µM]
1 | O=C(O)c1cc(O)c2c(c1)[C@@H]([C@H]1c3cc(C(=O)O)cc(O)c3C(=O)c3c(O[C@H]4O[C@@H](CO)[C@H](O)[C@@H](O)[C@@H]4O)cccc31)c1cccc(O[C@@H]3O[C@H](CO)[C@@H](O)[C@H](O)[C@H]3O)c1C2=O | 2 | – | – | – | – | – | –
2 | NCCc1ccc(O)c(-c2c(O)c(O)c3c(c2O)C(=O)c2c(cc(O)c(C(=O)O)c2C(=O)O)C3=O)c1 | – | Active | 44 | – | – | – | –
3 | O=C(O)c1cc(O)c2c(c1)[C@@H]([C@@H]1c3cc(C(=O)O)cc(O)c3C(=O)c3c(O[C@@H]4O[C@H](CO)[C@@H](O)[C@H](O)[C@H]4O)cccc31)c1cccc(O[C@H]3O[C@@H](CO)[C@H](O)[C@@H](O)[C@@H]3O)c1C2=O | 2 | – | – | – | – | – | –

Second part, led by results:

Row | IC50 [1] [µM] | inhibition [2] | IC50 [3] [µM] | Ki [5] [µM] | EC50 ([6]; r5-marble) | EC50 ([6]; Human immunodeficiency virus 1, NL4-3, R5-MaRBLE, 168 h, read-out: EC50) [µM] | Structure (SMILES) | CC50 at 168 h [4] [µM]
4 | – | Active | 64 | 0.3 | Not Active | – | CC(=O)NCCc1ccc(O)c(-c2c(O)c(O)c3c(c2O)C(=O)c2c(cc(O)c(C(=O)O)c2C(=O)O)C3=O)c1 [LACCACID ACID A] | 39.5
5 | – | Active | 8.1 | – | – | 19.2 | N[C@@H](Cc1ccc(O)c(-c2c(O)c(O)c3c(c2O)C(=O)c2c(cc(O)c(C(=O)O)c2C(=O)O)C3=O)c1)C(=O)O | 43.9
